In brackets after ≈: the same amount, converted by molar mass. Several values for one entry are separate records, joined by “and”; a condition that tells them apart may be missing. Identical values can stand only once. Like-named read-outs stand apart in the source and are kept apart here.
Experiments:
Meloidogyne incognita = assay: Indoor toxicity test against Meloidogyne incognita second-instar larvae (J2)
Protocol: Materials: the tested nematodes were collected from three different areas, namely cucumber crops in Dawenkou Town, Tai'an City, Shandong Province, and were all identified as southern root-knot nematodes (Meloidogyne incognita). The diseased roots were washed, cut into small sections of 0.5 cm to 1 cm, rinsed in 1% NaClO solution for about 30 s to 60 s, and rinsed with 200-mesh and 500-mesh sieves to collect nematode eggs for later use. The collected eggs were incubated at 25° C. using the Bayman funnel method and the second-instar larvae were collected 1 time per 24 h to ensure that the second-instar larvae selected each time were fresh and of consistent vitality.
The agent was 98% sulfoxamyl technical, and the comparison agents were 96% oxamyl technical and 87% fosthiazate technical.
The preparation for the agent was in accordance with the provisions for preparation of the liquid medicine in the Agricultural Industry Standard of the People's Republic of China NYT 1833.1-2009 “Guideline for laboratory bioassay of pesticides”, as shown in Table 6.
Methods: according to the experimental plan, the test agent was diluted to different mass concentrations, and 0.5 mL of the agent solution and 0.5 mL of the nematode solution (containing about 100 nematodes) were added into a 24-well cell culture plate. The treatment with each concentration of the agent was repeated 4 times, and auxiliary agent control and blank control were also conducted. […]

SD rats = assay: Acute oral toxicity test, single oral fixed-dose procedure; assay type: in vivo; settings: single oral dose 500 mg/kg
Protocol: Materials: the test agent 98% sulfoxamyl technical, batch number 20230708-1, was provided by Ningxia Hugerise Chemical Co., Ltd. Experimental animals: SPF-grade SD rats, half male and half female, weighing 180 g to 220 g, were provided by Jinan Pengyue Experimental Animal Breeding Co., Ltd., license number SCXK (Lu) 20190003. Rearing environment: the rats were housed in an SPF-grade animal room with free access to water and food, a temperature of 20° C. to 25° C., a humidity of 40% to 60%, and a 12 h/12 h light cycle. Feed: conventional pellet feed was provided by Jinan Pengyue Experimental Animal Breeding Co., Ltd.
The test was conducted in accordance with “Toxicological test methods of pesticides for registration, GB15670.5-2017”, “Acute toxicity test, GB15193.3-2003” and relevant acute toxicity research data.
Methods: a single oral fixed-dose procedure was conducted to preliminarily explore the toxic dose range of sulfoxamyl. LD50 and confidence limits were calculated by using the probability unit method (Bliss method). SD rats were randomly divided into 5 groups, 10 rats in each group, half of them were male and half were female. […] The common ratio value among each dose group was 0.75. After a single oral administration, the mortality rate of the experimental animals was recorded within 24 h and 14 days after administration, while the general condition of the animals was observed, and the food intake and body weight changes were recorded.

[1] = test system: Meloidogyne incognita eggs; assay: Inhibitory effect on hatching of Meloidogyne incognita eggs; assay type: in vivo; settings: 7 d
[2] = Meloidogyne incognita, 24 h, 50 mg/L
[3] = Meloidogyne incognita, 24 h, 100 mg/L
[4] = Meloidogyne incognita, 24 h, read-out: Corrected mortality, 50 mg/L, 24 h
[5] = Meloidogyne incognita, 24 h, read-out: Corrected mortality, 100 mg/L, 24 h
[6] = Meloidogyne incognita, 168 h, egg hatching

## CCOP(=O)(SC(C)CC)N1CCSC1=O (stereo not shown) [Fosthiazate, fosthiazate]
Meloidogyne incognita; 3.125 mg/L, 24 h
  Corrected mortality: 17.51% and 18.63% and 12.52%
  Death count: 24 and 38 and 26 and 20
  Mortality: 23.90% and 25.74% and 16.13%
Meloidogyne incognita; 6.25 mg/L, 24 h
  Corrected mortality: 33.03% and 29.63% and 42.23%
  Death count: 36 and 60 and 39 and 58
  Mortality: 38.22% and 35.78% and 44.62%
Meloidogyne incognita; 12.5 mg/L, 24 h
  Corrected mortality: 57.70% and 46.22% and 41.17% and 62.23%
  Death count: 80 and 64 and 69 and 74
  Mortality: 50.39% and 46.31% and 63.79%
Meloidogyne incognita; 25 mg/L, 24 h
  Corrected mortality: 74.92% and 67.46% and 64.47%
  Death count: 68 and 93 and 116 and 91
  Mortality: 76.86% and 70.30% and 65.94%
Meloidogyne incognita; 50 mg/L, 24 h
  Corrected mortality: 79.38% and 77.71% and 74.49%
  Death count: 84 and 132 and 94 and 105
  Mortality: 80.98% and 79.66% and 75.54%
Meloidogyne incognita; 100 mg/L, 24 h
  Corrected mortality: 75.25% and 86.39% and 79.87%
  Death count: 117 and 98 and 141 and 92
  Mortality: 77.17% and 87.58% and 80.70%
Meloidogyne incognita; 24 h
  LC90: 146.50 µg/mL (≈ 517 µM)
Meloidogyne incognita; Meloidogyne incognita, 24 h
  LC50: 14.6 µg/mL (≈ 51.4 µM)
Meloidogyne incognita; Meloidogyne incognita, 24 h, 3.125 mg/L
  mortality at 3.125 µg/mL: 16.6%
Meloidogyne incognita; Meloidogyne incognita, 24 h, 6.25 mg/L
  mortality at 6.25 µg/mL: 28.6%
Meloidogyne incognita; Meloidogyne incognita, 24 h, 12.5 mg/L
  mortality at 12.5 µg/mL: 59.7%
Meloidogyne incognita; Meloidogyne incognita, 24 h, 25 mg/L
  mortality at 25 µg/mL: 64.2%
Meloidogyne incognita; [2]
  mortality at 50 µg/mL: 82.3%
Meloidogyne incognita; [3]
  mortality at 100 µg/mL: 80.1%
Meloidogyne incognita; Meloidogyne incognita, 24 h, read-out: Corrected mortality, 3.125 mg/L, 24 h
  mortality at 3.125 µg/mL: 12.4%
Meloidogyne incognita; Meloidogyne incognita, 24 h, read-out: Corrected mortality, 6.25 mg/L, 24 h
  mortality at 6.25 µg/mL: 25%
Meloidogyne incognita; Meloidogyne incognita, 24 h, read-out: Corrected mortality, 25 mg/L, 24 h
  mortality at 25 µg/mL: 62.4%
Meloidogyne incognita; [4]
  mortality at 50 µg/mL: 81.5%
Meloidogyne incognita; [5]
  mortality at 100 µg/mL: 79.2%

## CNC(=O)O/N=C(\SC)C(=O)N(C)C [Oxamyl, N,N-dimethyl-2-[[[(methylamino)carbonyl]oxy]imino]-2-(methylthio)acetamide]
SD rats
  Death count: 6/6
  Main clinical symptom: All rats died within 5 min
[1]; 25 mg/L
  Number of hatched eggs/7 d: 81 and 92 and 90
  Number of unhatched eggs/7 d: 47 and 36 and 42
[1]; 50 mg/L
  Number of hatched eggs/7 d: 83 and 86 and 78
  Number of unhatched eggs/7 d: 53 and 52
[1]; 100 mg/L
  Number of hatched eggs/7 d: 62 and 72 and 71
  Number of unhatched eggs/7 d: 68 and 60 and 58
[1]; 200 mg/L
  Number of hatched eggs/7 d: 26 and 20 and 23
  Number of unhatched eggs/7 d: 97 and 101 and 103
[1]; 400 mg/L
  Number of hatched eggs/7 d: 12 and 15 and 11
  Number of unhatched eggs/7 d: 113 and 117 and 121
[1]; [6]
  IC50: 91.6 µg/mL (≈ 418 µM)
  IC90: 480 µg/mL (≈ 2190 µM)
Meloidogyne incognita; 25 mg/L, 24 h
  Corrected mortality: 6.89% and 2.76% and 3.40% and 3.65%
  Mortality: 8.04% and 3.96% and 4.59% and 4.84%
Meloidogyne incognita; 25 mg/L, 48 h
  Corrected mortality: 12.13% and 16.63% and 6.92% and 6.73%
  Death count: 15 and 18 and 9 and 10
  Mortality: 13.39% and 17.82% and 8.26% and 8.06%
Meloidogyne incognita; 25 mg/L, 72 h
  Corrected mortality: 23.34% and 15.88% and 15.37%
  Death count: 20 and 25 and 19 and 21
  Mortality: 24.75% and 17.43% and 16.94%
Meloidogyne incognita; 50 mg/L, 24 h
  Corrected mortality: 29.73% and 26.88% and 16.90%
  Mortality: 30.60% and 27.78% and 17.92%
Meloidogyne incognita; 50 mg/L, 48 h
  Corrected mortality: 44.73% and 39.88% and 31.09%
  Mortality: 45.52% and 40.74% and 32.08%
Meloidogyne incognita; 50 mg/L, 72 h
  Corrected mortality: 55.90% and 59.44% and 45.22%
  Death count: 41 and 76 and 65 and 49
  Mortality: 56.72% and 60.19% and 46.23%
Meloidogyne incognita; 100 mg/L, 24 h
  Corrected mortality: 48.91% and 58.66% and 60.23%
  Death count: 74 and 54 and 71 and 68
  Mortality: 49.54% and 59.17% and 60.71%
Meloidogyne incognita; 100 mg/L, 48 h
  Corrected mortality: 76.73% and 76.33% and 80.98%
  Death count: 90 and 84 and 92 and 91
  Mortality: 77.06% and 76.67% and 81.25%
Meloidogyne incognita; 100 mg/L, 72 h
  Corrected mortality: 75.93% and 81.31% and 83.87% and 97.27%
  Death count: 97 and 89 and 101 and 109
  Mortality: 76.38% and 81.65% and 84.17% and 97.32%
Meloidogyne incognita; 200 mg/L, 24 h
  Corrected mortality: 69.90% and 86.37% and 84.57% and 94.67%
  Death count: 78 and 90 and 89
  Mortality: 70.27% and 86.54% and 84.76% and 94.74%
Meloidogyne incognita; 200 mg/L, 48 h
  Corrected mortality: 90.24% and 92.27% and 97.86%
  Death count: 104 and 94 and 97 and 93
  Mortality: 90.38% and 92.38% and 97.89%
Meloidogyne incognita; 200 mg/L, 72 h
  Corrected mortality: 94.12% and 94.18% and 98.93%
  Death count: 108 and 98 and 99 and 94
  Mortality: 94.23% and 94.29% and 98.95%
Meloidogyne incognita; 400 mg/L, 24 h
  Death count: 99 and 101 and 117 and 112
Meloidogyne incognita; 400 mg/L, 48 h
  Death count: 101 and 108 and 119 and 117
Meloidogyne incognita; 400 mg/L, 72 h
  Death count: 103 and 110 and 120 and 118
Meloidogyne incognita; 24 h
  LC90: 273.89 µg/mL (≈ 1250 µM)
Meloidogyne incognita; 48 h
  LC90: 181.92 µg/mL (≈ 830 µM)
Meloidogyne incognita; 72 h
  LC90: 131.82 µg/mL (≈ 601 µM)
Meloidogyne incognita; Meloidogyne incognita, 24 h
  LC50: 94.8 µg/mL (≈ 432 µM)
Meloidogyne incognita; [2]
  mortality at 50 µg/mL: 23.8%
Meloidogyne incognita; [3]
  mortality at 100 µg/mL: 58.3%
Meloidogyne incognita; Meloidogyne incognita, 24 h, 400 mg/L
  mortality at 400 µg/mL: 96.1%
Meloidogyne incognita; [4]
  mortality at 50 µg/mL: 22.8%
Meloidogyne incognita; [5]
  mortality at 100 µg/mL: 57.8%
Meloidogyne incognita; Meloidogyne incognita, 24 h, read-out: Corrected mortality, 400 mg/L, 24 h
  mortality at 400 µg/mL: 96.1%
Meloidogyne incognita; Meloidogyne incognita, 48 h
  LC50: 64.4 µg/mL (≈ 294 µM)
Meloidogyne incognita; Meloidogyne incognita, 48 h, 50 mg/L
  mortality at 50 µg/mL: 29.7%
Meloidogyne incognita; Meloidogyne incognita, 48 h, 100 mg/L
  mortality at 100 µg/mL: 70.9%
Meloidogyne incognita; Meloidogyne incognita, 48 h, 200 mg/L
  mortality at 200 µg/mL: 93.7%
Meloidogyne incognita; Meloidogyne incognita, 48 h, 400 mg/L
  mortality at 400 µg/mL: 98.1%
Meloidogyne incognita; Meloidogyne incognita, 48 h, read-out: Corrected mortality, 50 mg/L, 48 h
  mortality at 50 µg/mL: 28.7%
Meloidogyne incognita; Meloidogyne incognita, 48 h, read-out: Corrected mortality, 100 mg/L, 48 h
  mortality at 100 µg/mL: 70.4%
Meloidogyne incognita; Meloidogyne incognita, 48 h, read-out: Corrected mortality, 200 mg/L, 48 h
  mortality at 200 µg/mL: 93.6%
Meloidogyne incognita; Meloidogyne incognita, 48 h, read-out: Corrected mortality, 400 mg/L, 48 h
  mortality at 400 µg/mL: 98%
Meloidogyne incognita; Meloidogyne incognita, 72 h
  LC50: 49.6 µg/mL (≈ 226 µM)
Meloidogyne incognita; Meloidogyne incognita, 72 h, 25 mg/L
  mortality at 25 µg/mL: 17.9%
Meloidogyne incognita; Meloidogyne incognita, 72 h, 50 mg/L
  mortality at 50 µg/mL: 40.6%
Meloidogyne incognita; Meloidogyne incognita, 72 h, 200 mg/L
  mortality at 200 µg/mL: 97.3%
Meloidogyne incognita; Meloidogyne incognita, 72 h, 400 mg/L
  mortality at 400 µg/mL: 100%
Meloidogyne incognita; Meloidogyne incognita, 72 h, read-out: Corrected mortality, 25 mg/L, 72 h
  mortality at 25 µg/mL: 16.3%
Meloidogyne incognita; Meloidogyne incognita, 72 h, read-out: Corrected mortality, 50 mg/L, 72 h
  mortality at 50 µg/mL: 39.5%
Meloidogyne incognita; Meloidogyne incognita, 72 h, read-out: Corrected mortality, 200 mg/L, 72 h
  mortality at 200 µg/mL: 97.2%
Meloidogyne incognita; Meloidogyne incognita, 72 h, read-out: Corrected mortality, 400 mg/L, 72 h
  mortality at 400 µg/mL: 100%

— patent US20250221413A1, “Use and Preparation Method of Sulfoxamyl, and Oxidation System” (priority 2023, published 2025)
